Where two headings read alike, the source gives them in different places.
Legend:
Type in all cases: cell-based
[1] = test system: OCI-LY10 cells; assay: CTG Cell Viability Assay - OCI-LY10; conditions: Homo sapiens, 96 h, CellTiter-Glo, 4 days incubation
Method: Compound-mediated viability effect on OCI-LY10 or SUDHL-2 was quantitatively determined using the CellTiter-Glo® Luminescent Cell Viability Assay kit from Promega (Catalog number G7570) following manufacturer's recommended procedures. Briefly, OCI-LY10 or SUDHL-2 cells were seeded into 384 well plates (Grenier Bio-One, Catalog number 781080) with a density of 10,000 cells per well. Compounds were then added to the assay plate with final top concentration of 10 μM and 1:3 dilution series with total of 9 doses. The final DMSO concentration was normalized to 0.2%. The assay plates were incubated at 37° C. for 4 days under 5% CO2. Then the assay plate was equilibrated at room temperature for 10 minutes. To determine cell viability, 30 μL CellTiter Glo reagent was added to each well and the assay plate was centrifuged at 1000 rpm for 30 second, incubated at room temperature for 10 min, and analyzed by detecting the luminescence using a multimode plate reader (EnVision 2105, PerkinElmer). The data was then analyzed by software Prism 7.0 from GraphPad and the dose response curves were fit using a three-parameter logistic equation to calculate IC50.

[2] = target: T1, IRAK4 (Homo sapiens, UniProt Q9NWZ3); assay: IRAK4 MSD Degradation in OCI-LY10; conditions: OCI-LY10 cells
T1 construct: endogenous in cells; host or cells: OCI-LY10
T1 sequence (Q9NWZ3 1-460): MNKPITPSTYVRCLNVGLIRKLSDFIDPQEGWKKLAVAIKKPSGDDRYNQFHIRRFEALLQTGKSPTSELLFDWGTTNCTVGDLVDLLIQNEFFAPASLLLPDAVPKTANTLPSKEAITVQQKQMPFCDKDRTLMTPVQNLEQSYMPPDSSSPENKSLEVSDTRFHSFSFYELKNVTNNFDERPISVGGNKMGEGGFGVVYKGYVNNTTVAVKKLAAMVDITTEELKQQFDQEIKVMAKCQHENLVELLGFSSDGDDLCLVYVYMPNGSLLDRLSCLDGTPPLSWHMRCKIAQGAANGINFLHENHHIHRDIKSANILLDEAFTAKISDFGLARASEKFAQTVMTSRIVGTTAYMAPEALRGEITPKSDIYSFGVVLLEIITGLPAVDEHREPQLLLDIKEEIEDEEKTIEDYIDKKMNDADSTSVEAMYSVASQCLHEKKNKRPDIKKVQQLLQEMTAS
Method: Degradation of IRAK4 in OCI-LY10 was quantitatively measured using Meso Scale Discovery technology. OCI-LY10 cells were seeded in 96-well plates (Corning 3799) with a density of 300,000 cells per well in 100 μL fresh media. Compounds were then added to the assay plates with a final top concentration of 1 to 10 μM in a 1:3 dilution series with total of 8 doses. The assay plates were then incubated for 4 to 24 hours at 37° C. under 5% CO2. The assay plates were then centrifuged for 5 minutes and the cell pellets were treated with 100 μL/well RIPA lysis buffer (Boston BioProducts BP-115D) with proteinase inhibitors. To prepare MSD assay plates (Meso Scale Discovery Catalog number L15XA-3), the plates were coated with 2 μg/mL capture antibody (mouse Anti-IRAK4 antibody [2H9], ab119942) in PBS, at 40 μL/well. The plates were then incubated overnight at 4° C., washed 3 times with 150 μL/well TBST buffer (Cell Signaling Technology, Catalog number 9997S) and blocked with 150 μL/well blocking buffer (Meso Scale Discovery Catalog number R93BA-4). Cell lysates were then added to MSD assay plates and the plates were incubated at room temperature for 1 hour. The plates were then washed 3 times with 150 μL/well TBST buffer and 25 μL/well primary detection antibody (rabbit Anti-IRAK4 antibody [Y279], from Abcam. Catalog number ab32511, 1 μg/mL). The assay plates were then incubated at room temperature for 1 hour, washed 3 times with 150 μL/well TBST buffer and 25 μL/well secondary detection antibody, SULFO-TAG anti-rabbit antibody were added (anti rabbit antibody from Meso Scale Discovery, Catalog number R32AB-1, 1 μg/mL). The assay plates were then incubated at room temperature for 1 hour, washed 3 times with 150 μL/well TBST buffer, and 150 μL/well MSD reading buffer (Meso Scale Discovery catalog number R92TC-2) was added. The plates were then analyzed by a MSD reader (Meso Scale Discovery, Model Quick Plex SQ 120). The data was then analyzed by software Prism 7.0 from GraphPad and the dose-depended IRAK4 degradation were fit using a three-parameter logistic equation to calculate DC50.

[3] = target: T2, Aiolos (protein product of gene IKZF3) (Homo sapiens, UniProt Q96SW2+Q9UKT9); assay: Quantification of Aiolos degradation in OCI-LY10 cells (quantitative immunoblotting); conditions: 6 h treatment
T2 construct: endogenous in cells; host or cells: OCI-LY10
T2 sequence (Q9UKT9 whole entry): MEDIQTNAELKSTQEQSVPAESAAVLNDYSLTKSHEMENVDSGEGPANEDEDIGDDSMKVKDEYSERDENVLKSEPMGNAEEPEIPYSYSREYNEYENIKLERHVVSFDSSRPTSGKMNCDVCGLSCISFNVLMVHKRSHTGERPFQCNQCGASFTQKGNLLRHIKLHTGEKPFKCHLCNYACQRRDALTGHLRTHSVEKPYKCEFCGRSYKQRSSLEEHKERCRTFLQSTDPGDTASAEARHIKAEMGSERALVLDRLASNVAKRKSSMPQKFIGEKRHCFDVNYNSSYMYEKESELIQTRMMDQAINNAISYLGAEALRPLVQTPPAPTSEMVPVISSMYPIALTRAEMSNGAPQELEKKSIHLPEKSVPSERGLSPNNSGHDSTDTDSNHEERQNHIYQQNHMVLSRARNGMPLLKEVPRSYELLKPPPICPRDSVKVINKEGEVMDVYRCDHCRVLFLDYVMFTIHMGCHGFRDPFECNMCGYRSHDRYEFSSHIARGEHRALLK
T2 sequence (Q96SW2 whole entry): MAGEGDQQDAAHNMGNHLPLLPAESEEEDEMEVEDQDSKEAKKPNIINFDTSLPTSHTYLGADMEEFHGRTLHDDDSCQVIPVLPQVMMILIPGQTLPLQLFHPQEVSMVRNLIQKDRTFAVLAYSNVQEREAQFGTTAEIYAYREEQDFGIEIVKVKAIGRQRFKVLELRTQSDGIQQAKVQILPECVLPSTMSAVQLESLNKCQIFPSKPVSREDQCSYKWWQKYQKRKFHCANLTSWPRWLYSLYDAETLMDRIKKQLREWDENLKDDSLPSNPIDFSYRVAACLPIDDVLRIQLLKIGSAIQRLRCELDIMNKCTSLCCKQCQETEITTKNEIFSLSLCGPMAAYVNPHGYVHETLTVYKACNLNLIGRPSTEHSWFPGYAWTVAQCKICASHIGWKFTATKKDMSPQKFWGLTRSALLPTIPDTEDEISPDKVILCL
T2 sequence (Q16531 whole entry partner): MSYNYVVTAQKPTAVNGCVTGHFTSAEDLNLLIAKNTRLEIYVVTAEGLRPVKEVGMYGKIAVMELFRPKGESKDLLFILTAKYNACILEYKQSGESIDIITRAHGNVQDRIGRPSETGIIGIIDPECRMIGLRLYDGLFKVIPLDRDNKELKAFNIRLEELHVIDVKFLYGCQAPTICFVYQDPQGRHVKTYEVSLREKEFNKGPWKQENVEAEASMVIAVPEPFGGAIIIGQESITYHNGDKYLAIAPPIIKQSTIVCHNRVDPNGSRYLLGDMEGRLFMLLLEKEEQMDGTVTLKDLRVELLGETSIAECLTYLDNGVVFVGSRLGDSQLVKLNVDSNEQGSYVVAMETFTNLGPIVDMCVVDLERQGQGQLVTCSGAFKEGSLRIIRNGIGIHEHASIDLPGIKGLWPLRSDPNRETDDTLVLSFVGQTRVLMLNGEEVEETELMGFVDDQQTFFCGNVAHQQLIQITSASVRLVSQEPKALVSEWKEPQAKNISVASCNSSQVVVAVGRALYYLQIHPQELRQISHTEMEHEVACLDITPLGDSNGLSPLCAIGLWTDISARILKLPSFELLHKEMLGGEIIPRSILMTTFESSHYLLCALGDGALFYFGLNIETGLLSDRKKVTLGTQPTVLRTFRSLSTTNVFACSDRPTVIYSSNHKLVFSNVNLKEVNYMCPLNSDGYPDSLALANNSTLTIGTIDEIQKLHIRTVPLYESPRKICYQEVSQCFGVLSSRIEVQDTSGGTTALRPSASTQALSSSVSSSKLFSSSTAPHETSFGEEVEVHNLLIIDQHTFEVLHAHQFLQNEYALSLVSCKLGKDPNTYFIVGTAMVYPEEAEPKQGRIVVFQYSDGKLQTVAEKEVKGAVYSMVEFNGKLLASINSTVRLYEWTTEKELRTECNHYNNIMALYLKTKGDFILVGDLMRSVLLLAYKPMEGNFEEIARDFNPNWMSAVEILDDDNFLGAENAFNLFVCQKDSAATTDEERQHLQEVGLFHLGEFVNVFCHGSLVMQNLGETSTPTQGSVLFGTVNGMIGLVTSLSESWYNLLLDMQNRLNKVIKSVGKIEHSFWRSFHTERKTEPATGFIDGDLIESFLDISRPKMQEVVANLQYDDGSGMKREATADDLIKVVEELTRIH
Method: (§1) Degradation of Ikaros (protein product of gene IKZF1) and Aiolos (protein product of gene IKZF3) were determined by quantitative immunoblotting as follows. OCI-LY10 cells, 2×10^6 cells/well, were treated with listed concentrations of IRAK4 degraders or control compounds in 6 well plates for 6 h. Cells were collected, washed with cold PBS, lysed in RIPA buffer (Boston BioProducts BP-115D) with protease/phosphatase inhibitor cocktail (Roche 05892791001/Roche 04906837001) and centrifuged at 13000 RPM for 20 min to precipitate insoluble material. The supernatant fraction was diluted in SDS-PAGE loading buffer (Beyotime Bio P0015) and 20 μL of each sample was resolved on 4-12% Bis-Tris SDS-PAGE gels (Novex, WG1402BOX). Resolved samples were transferred to nitrocellulose membranes by wet electro-transfer method at 250 mV for 1.5 h. The membrane was blocked with LICOR blocking buffer (LI-COR, 927-50000) for 1 hour, washed three times with TBST (CST #99975) for 5 minutes each and incubated with primary antibody prepared in block buffer with 0.1% Tween-20 (Solarbio, P8220) at 4° C. overnight. Ikaros antibody was rabbit monoclonal D6N9Y (CST #14859), at 1:1000 dilution. Aiolos antibody was rabbit monoclonal D1C1E (CST #15103), at 1:1000 dilution. Signal was normalized to mouse anti-beta-Actin monoclonal 8H10D10 (CST #3700) used at 1:10,000 dilution. After incubation in primary antibodies, membranes were washed three times with TBST, 5 minutes each, incubated with fluorescently labeled secondary antibodies anti-rabbit IgG (Licor, 926-32211) at 1:5000 dilution; anti-mouse IgG (LI-COR, 926-68070) at 1:5000 dilution, for 1 hour at RT. After incubation in secondary, membranes were washed three times with TBST, 5 minutes each and read on LICOR Odyssey imager. Data was reported as signal for Ikaros or Aiolos relative to signal for actin, and normalized to DMSO-treated control.

[4] = target: T3, Ikaros (protein product of gene IKZF1) (Homo sapiens, UniProt Q13422+Q96SW2); assay: Quantification of Ikaros degradation in OCI-LY10 cells (quantitative immunoblotting); conditions: 6 h treatment
T3 construct: endogenous in cells; host or cells: OCI-LY10
T3 sequence (Q13422 whole entry): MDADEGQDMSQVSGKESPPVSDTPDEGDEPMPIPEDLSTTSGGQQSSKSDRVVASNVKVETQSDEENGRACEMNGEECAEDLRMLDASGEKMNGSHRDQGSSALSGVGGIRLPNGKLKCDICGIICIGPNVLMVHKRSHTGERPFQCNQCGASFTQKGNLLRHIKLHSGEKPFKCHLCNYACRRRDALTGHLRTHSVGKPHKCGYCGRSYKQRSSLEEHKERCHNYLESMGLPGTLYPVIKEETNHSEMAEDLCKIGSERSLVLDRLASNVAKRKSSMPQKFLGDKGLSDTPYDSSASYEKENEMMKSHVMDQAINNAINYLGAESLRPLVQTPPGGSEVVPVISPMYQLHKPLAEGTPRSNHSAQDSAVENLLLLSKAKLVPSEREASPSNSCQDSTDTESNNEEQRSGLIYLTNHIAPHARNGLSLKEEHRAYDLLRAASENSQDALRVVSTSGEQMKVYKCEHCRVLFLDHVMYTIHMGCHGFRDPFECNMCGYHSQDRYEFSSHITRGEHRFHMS
T3 sequence (Q96SW2 whole entry): as the sequence (Q96SW2 whole entry) above
T3 sequence (Q16531 whole entry partner): as the sequence (Q16531 whole entry partner) above
Method: as §1

[5] = 24 hrs incubation, read-out: IRAK4 degradation in OCI-LY10 at 24 hrs: DC50

## Cc1nccc(C(=O)Nc2cc3sc([C@H]4CC[C@H](CN5CC6(CC(CCNc7cccc8c7C(=O)N(C7CCC(=O)NC7=O)C8=O)C6)C5)CC4)nc3cc2C(C)(C)O)n1 (stereo partly drawn) [I-51]
[1]
  IC50: < 50 nM
[2]; [5]
  DC50: > 1000 nM

## CC(C)(O)c1cc2nc([C@H]3CC[C@H](CN4CC(CCNc5cccc6c5C(=O)N(C5CCC(=O)NC5=O)C6=O)C4)CC3)sc2cc1NC(=O)c1cccc(C(F)(F)F)n1 (stereo partly drawn) [I-45]
[1]
  IC50: 100 to 500 nM
[3]
  DC50: 100 to 500 nM
[4]
  DC50: 100 to 500 nM
[2]; [5]
  DC50: < 50 nM

## CC(C)(O)c1cc2nc([C@H]3CC[C@H](CN4CCC5(CC4)CC(CNc4cccc6c4C(=O)N(C4CCC(=O)NC4=O)C6=O)C5)CC3)sc2cc1NC(=O)c1cccc(C(F)(F)F)n1 (stereo partly drawn) [I-29]
[1]
  IC50: < 50 nM
[3]
  DC50: < 50 nM
[4]
  DC50: < 50 nM
[2]; [5]
  DC50: < 50 nM

## CC(C)(O)c1cc2nc([C@H]3CC[C@H](CN4CC5(CC(CCNc6cccc7c6C(=O)N(C6CCC(=O)NC6=O)C7=O)C5)C4)CC3)sc2cc1NC(=O)c1ccccn1 (stereo partly drawn) [I-57]
[1]
  IC50: < 50 nM

## CC(C)(O)c1cc2nc([C@H]3CC[C@H](CN4CC5(CC(CCNc6cccc7c6C(=O)N(C6CCC(=O)NC6=O)C7=O)C5)C4)CC3)sc2cc1NC(=O)c1cccc(C(C)(F)F)c1 (stereo partly drawn) [I-50]
[1]
  IC50: < 50 nM
[3]
  DC50: < 50 nM
[4]
  DC50: < 50 nM
[2]; [5]
  DC50: 500 to 1000 nM

## CC(C)(O)c1cc2nc([C@H]3CC[C@H](CN4CC5(CC(CCNc6cccc7c6C(=O)N(C6CCC(=O)NC6=O)C7=O)C5)C4)CC3)sc2cc1NC(=O)c1cccc(C(F)(F)F)c1 (stereo partly drawn) [I-53]
[1]
  IC50: < 50 nM
[3]
  DC50: < 50 nM
[4]
  DC50: < 50 nM
[2]; [5]
  DC50: 100 to 500 nM

## CC(C)(O)c1cc2nc([C@H]3CC[C@H](CN4CC5(CC(CCNc6cccc7c6C(=O)N(C6CCC(=O)NC6=O)C7=O)C5)C4)CC3)sc2cc1NC(=O)c1cnccn1 (stereo partly drawn) [I-58]
[1]
  IC50: < 50 nM

## Cc1cccc(C(=O)Nc2cc3sc([C@H]4CC[C@H](CN5CCC6(CC5)CC(CCNc5cccc7c5C(=O)N(C5CCC(=O)NC5=O)C7=O)C6)CC4)nc3cc2C(C)(C)O)n1 (stereo partly drawn) [I-22]
[1]
  IC50: < 50 nM
[3]
  DC50: < 50 nM
[4]
  DC50: < 50 nM
[2]; [5]
  DC50: 50 to 100 nM

## CN(C[C@H]1CC[C@H](c2nc3cc(C(C)(C)O)c(NC(=O)c4cccc(C(F)(F)F)n4)cc3s2)CC1)[C@H]1CC[C@@H](CCNc2cccc3c2C(=O)N(C2CCC(=O)NC2=O)C3=O)CC1 (stereo partly drawn) [I-46]
[1]
  IC50: < 50 nM
[3]
  DC50: < 50 nM
[4]
  DC50: < 50 nM
[2]; [5]
  DC50: 50 to 100 nM

## CN(C[C@H]1CC[C@H](c2nc3cc(C(C)(C)O)c(NC(=O)c4cccc(C(F)(F)F)n4)cc3s2)CC1)[C@H]1CC[C@]2(CC1)C[C@@H](CNc1cccc3c1C(=O)N(C1CCC(=O)NC1=O)C3=O)C2 (stereo partly drawn) [I-25]
[1]
  IC50: < 50 nM
[3]
  DC50: < 50 nM
[4]
  DC50: < 50 nM
[2]; [5]
  DC50: 50 to 100 nM

## CN(C[C@H]1CC[C@H](c2nc3cc(C(C)(C)O)c(NC(=O)c4cccc(C(F)(F)F)n4)cc3s2)CC1)[C@H]1CC[C@H](CNc2cccc3c2C(=O)N(C2CCC(=O)NC2=O)C3=O)CC1 (stereo partly drawn) [I-41]
[1]
  IC50: < 50 nM
[3]
  DC50: < 50 nM
[4]
  DC50: < 50 nM
[2]; [5]
  DC50: < 50 nM

## CN(C[C@H]1CC[C@H](c2nc3cc(C(C)(C)O)c(NC(=O)c4cccc(C(F)(F)F)n4)cc3s2)CC1)[C@H]1CC[C@H](CCNc2cccc3c2C(=O)N(C2CCC(=O)NC2=O)C3=O)CC1 (stereo partly drawn) [I-27]
[1]
  IC50: < 50 nM
[3]
  DC50: < 50 nM
[4]
  DC50: < 50 nM
[2]; [5]
  DC50: < 50 nM

## CC1(C)OC2(C)c3ccccc3CCN2c2cc3sc([C@H]4CC[C@H](CN5CC6(CC(CCNc7cccc8c7C(=O)N(C7CCC(=O)NC7=O)C8=O)C6)C5)CC4)nc3cc21 (stereo partly drawn) [I-49]
[1]
  IC50: 50 to 100 nM
[3]
  DC50: < 50 nM
[4]
  DC50: < 50 nM
[2]; [5]
  DC50: > 1000 nM

## CC(C)(O)c1cc2nc([C@H]3CC[C@H](CN4CCC(CCNc5cccc6c5C(=O)N(C5CCC(=O)NC5=O)C6=O)CC4)CC3)sc2cc1NC(=O)c1cccc(C(F)(F)F)n1 (stereo partly drawn) [I-24]
[1]
  IC50: < 50 nM
[3]
  DC50: < 50 nM
[4]
  DC50: < 50 nM
[2]; [5]
  DC50: < 50 nM

## C[C@@H](CNc1cccc2c1C(=O)N(C1CCC(=O)NC1=O)C2=O)C1CC2(C1)CN(C[C@H]1CC[C@H](c3nc4cc(C(C)(C)O)c(NC(=O)c5cccc(C(F)(F)F)n5)cc4s3)CC1)C2 (stereo partly drawn) [I-32]
[1]
  IC50: 50 to 100 nM
[3]
  DC50: < 50 nM
[4]
  DC50: < 50 nM
[2]; [5]
  DC50: < 50 nM

## CC(C)(O)c1cc2nc([C@H]3CC[C@H](CN4CC5(CC(CCNc6cccc7c6C(=O)N(C6CCC(=O)NC6=O)C7=O)C5)C4)CC3)sc2cc1N1CCc2ccccc2C1=O (stereo partly drawn) [I-60]
[1]
  IC50: < 50 nM
[2]; [5]
  DC50: < 50 nM

## COc1cc2nc([C@H]3CC[C@H](CN4CCC5(CC4)CC(Nc4cccc6c4C(=O)N(C4CCC(=O)NC4=O)C6=O)C5)CC3)sc2cc1NC(=O)c1cnn2cccnc12 (stereo partly drawn) [I-34]
[1]
  IC50: 50 to 100 nM
[3]
  DC50: < 50 nM
[4]
  DC50: < 50 nM
[2]; [5]
  DC50: < 50 nM

## CC(C)(O)c1cc2nc([C@H]3CC[C@@H](N4CC5(CC(CCNc6cccc7c6C(=O)N(C6CCC(=O)NC6=O)C7=O)C5)C4)CC3)sc2cc1NC(=O)c1cccc(C(F)(F)F)n1 (single isomer, unassigned) [I-64]
[1]
  IC50: < 50 nM

## CC(C)(O)c1cc2nc([C@H]3CC[C@H](CN4CC5(CC(CCNc6cccc7c6C(=O)N(C6CCC(=O)NC6=O)C7=O)C5)C4)CC3)sc2cc1NC(=O)c1cccc(C(F)(F)F)n1 (stereo partly drawn) [I-3, N-[2-[4-[[6-[2-[[2-(2,6-dioxo-3-piperidyl)-1,3-dioxo-isoindolin-4-yl]amino]ethyl]-2-azaspiro[3.3]heptan-2-yl]methyl]cyclohexyl]-5-(1-hydroxy-1-methyl-ethyl)-1,3-benzothiazol-6-yl]-6-(trifluoromethyl)pyridine-2-carboxamide]
[3]
  DC50: < 50 nM
[4]
  DC50: < 50 nM
[2]; 4 hrs incubation, read-out: IRAK4 degradation in OCI-LY10 at 4 hrs: DC50
  DC50: 50 to 100 nM
[2]; [5]
  DC50: < 50 nM
